This is an account of results in patent publication US5916915A, “Water-in-stable L-ascorbic acid derivative and a method for preparation thereof, and a skin-whitening cosmetic composition containing the same” (priority 1997, dated 1999).

Series [1] is described as follows: Stability in an aqueous base: precipitation and discoloration. Particulars: 3 g in 100 ml water. Type of series: physicochemical. Also on record: key: -: No precipitation; +: Slight precipitation; ++: Some precipitation; +++: Severe precipitation. The method, then:
Each 3 g of compounds of Preparation Ex. 3 and Ex. 6 and L-ascorbic acid 2-phosphate magnesium was dissolved in 100 ml of distilled water, and then maintained in a thermostat of 50° C. for 30 minutes.
Colorless or pale-yellow
+++ Severe precipitation

Series [2] can be described thus: Stability of AsA-APPA in pH 7 buffer at 50° C. (residual ratio by UV absorbance). Particulars: about; neutral aqueous solution, 50° C. Type of series: physicochemical. The method, then:
L-Ascorbic acid and AsA-APPA produced in Preparation Ex. 2 were dissolved in buffer solutions of pH 7 to concentrations of 50 μM, respectively, and then maintained in a thermostat of 50° C. At constant intervals, UV absorbances were measured at 259 nm for AsA-APPA and at 266 nm for L-ascorbic acid, to evaluate the stabilities of the test samples as residual ratio(%).

Where only a bound is given, the exact number is not on record here.

On to `O=C1O[C@H]([C@@H](O)CO)C(O)=C1OP(=O)([O-])[O-].[Mg+2]` [compound 1, L-ascorbic acid 2-phosphate magnesium, reference compound], for which the Precipitation entry is reported as “-” in series [1] (day 1); “+” in series [1] (day 3); “+” in series [1] (day 5); “++” in series [1] (day 7); “++” in series [1] (day 9); “++” in series [1] (day 11). The Precipitation entry in series [1] (day 13), in series [1] (day 15) and in series [1] (day 30) was “+++” each time.
With `NCCCOP(=O)(O)OC1=C(O)[C@@H]([C@@H](O)CO)OC1=O` [Prep. Ex. 3], the Precipitation result in series [1] (day 1), in series [1] (day 3), in series [1] (day 5), in series [1] (day 7), in series [1] (day 9) and in series [1] (day 11) was “-” each time. In addition, the Precipitation result in series [1] (day 13), in series [1] (day 15) and in series [1] (day 30) was “-” each time.
For the molecule `O=C1O[C@H]([C@@H](O)CO)C(O)=C1O` [L-ascorbic acid], in series [2], the time to decomposition was not above 1 h.
